Assay results taken from ChEMBL document CHEMBL2434907, “Synthesis and SAR studies of benzimidazolone derivatives as histamine H3-receptor antagonists” (Bioorg Med Chem Lett, 2013).

How the values were obtained:
Histamine H3 receptor = Histamine H3 receptor (Cavia porcellus, UniProt Q9JI35); assay: Displacement of [3H]-N-alpha-methyl histamine from histamine H3 receptor in guinea pig brain homogenates; assay type: tissue-based
Cytochrome P450 3A4 = Cytochrome P450 3A4 (Homo sapiens, UniProt P08684); assay: Inhibition of CYP3A4 in human liver microsomes; assay type: ADME, Microsome
Cytochrome P450 2D6 = Cytochrome P450 2D6 (Homo sapiens, UniProt P10635); assay: Inhibition of CYP2D6 in human liver microsomes; assay type: ADME, Microsome
[1] = AUC in Sprague-Dawley rat at 10 mg/kg, po; assay type: ADME, organism-based; design: dose 10 mg/kg, route oral; details: plasma
[2] = Plasma concentration in Sprague-Dawley rat at 10 mg/kg, po after 6 hrs; assay type: ADME, organism-based; design: dose 10 mg/kg, route oral

Sequence of Cytochrome P450 3A4 (P08684 whole entry): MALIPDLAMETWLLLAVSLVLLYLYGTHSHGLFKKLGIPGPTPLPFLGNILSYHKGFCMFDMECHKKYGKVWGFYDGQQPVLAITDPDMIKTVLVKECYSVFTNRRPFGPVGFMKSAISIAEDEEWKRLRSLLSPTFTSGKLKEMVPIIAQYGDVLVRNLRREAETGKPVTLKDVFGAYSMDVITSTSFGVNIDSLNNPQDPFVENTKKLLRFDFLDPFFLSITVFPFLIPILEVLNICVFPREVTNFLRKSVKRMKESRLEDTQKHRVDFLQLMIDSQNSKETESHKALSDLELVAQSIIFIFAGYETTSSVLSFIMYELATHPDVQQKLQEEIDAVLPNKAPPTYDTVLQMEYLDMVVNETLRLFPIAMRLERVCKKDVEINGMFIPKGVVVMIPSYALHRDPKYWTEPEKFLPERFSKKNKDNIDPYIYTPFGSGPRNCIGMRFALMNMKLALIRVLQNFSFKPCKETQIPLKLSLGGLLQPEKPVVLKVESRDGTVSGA
Sequence of Histamine H3 receptor (Q9JI35 whole entry): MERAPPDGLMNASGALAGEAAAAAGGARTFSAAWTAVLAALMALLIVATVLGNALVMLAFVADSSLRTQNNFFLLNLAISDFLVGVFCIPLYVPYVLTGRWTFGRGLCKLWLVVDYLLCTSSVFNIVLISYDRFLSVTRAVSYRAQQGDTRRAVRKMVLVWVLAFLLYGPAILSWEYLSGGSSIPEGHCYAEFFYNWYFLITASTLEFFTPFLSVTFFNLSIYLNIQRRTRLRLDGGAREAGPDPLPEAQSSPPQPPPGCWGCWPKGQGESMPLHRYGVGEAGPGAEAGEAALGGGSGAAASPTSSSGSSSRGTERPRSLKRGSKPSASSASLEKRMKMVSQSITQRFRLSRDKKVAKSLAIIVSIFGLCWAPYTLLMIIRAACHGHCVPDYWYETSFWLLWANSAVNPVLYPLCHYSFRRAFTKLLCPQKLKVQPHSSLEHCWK
Sequence of Cytochrome P450 2D6 (P10635 whole entry): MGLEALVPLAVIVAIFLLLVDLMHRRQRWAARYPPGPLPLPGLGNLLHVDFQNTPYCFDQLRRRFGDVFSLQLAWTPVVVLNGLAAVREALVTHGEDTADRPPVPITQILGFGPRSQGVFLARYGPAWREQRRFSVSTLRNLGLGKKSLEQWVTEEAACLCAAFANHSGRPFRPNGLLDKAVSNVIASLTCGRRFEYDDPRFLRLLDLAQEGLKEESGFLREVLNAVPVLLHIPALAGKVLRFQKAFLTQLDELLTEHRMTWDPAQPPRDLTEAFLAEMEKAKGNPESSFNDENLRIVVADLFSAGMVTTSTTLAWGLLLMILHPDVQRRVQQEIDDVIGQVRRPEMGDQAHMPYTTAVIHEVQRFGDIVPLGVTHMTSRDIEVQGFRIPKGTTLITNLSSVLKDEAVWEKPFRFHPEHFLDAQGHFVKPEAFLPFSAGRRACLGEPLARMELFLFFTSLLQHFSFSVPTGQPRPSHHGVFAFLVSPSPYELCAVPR

Row | SMILES | Ki (Histamine H3 receptor) [nM] | IC50 (Cytochrome P450 3A4) [µM] | IC50 (Cytochrome P450 2D6) [µM] | AUC [1] [µM·h] | concentration at 6 h [2] [nM]
1 | Nc1cc(CN2CCC(C(=O)N3CCC(n4c(=O)n(Cc5ccc(Cl)cc5)c5ccccc54)CC3)CC2)ccn1 | 12 | – | – | – | –
2 | Nc1cc(CN2CCC(C(=O)N3CCC(n4c(=O)n(Cc5ccccc5)c5cc(F)ccc54)CC3)CC2)ccn1 | 6 | – | – | – | –
3 | CC(c1ccc(Cl)c(Cl)c1)n1c(=O)n(C2CCN(C(=O)C3CCN(Cc4ccnc(N)c4)CC3)CC2)c2ccccc21 (stereo unspecified) | 77 | – | – | – | –
4 | CC(c1ccc(-c2ccc(F)cc2)cc1)n1c(=O)n(C2CCN(C(=O)C3CCN(Cc4ccnc(N)c4)CC3)CC2)c2ccccc21 (stereo unspecified) | 420 | – | – | – | –
5 | CC(C)Cn1c(=O)n(C2CCN(C(=O)C3CCN(Cc4ccnc(N)c4)CC3)CC2)c2ccc(F)cc21 | – | > 30 | > 30 | – | –
6 | Nc1cc(CN2CCC(C(=O)N3CCC(n4c(=O)n(CC(F)(F)F)c5cc(F)ccc54)CC3)CC2)ccn1 | – | > 30 | > 30 | 1.2 | 130
7 | Nc1cc(CN2CCC(C(=O)N3CCC(n4c(=O)n(CC5CCCCC5)c5cc(F)ccc54)CC3)CC2)ccn1 | – | > 30 | > 30 | – | –
8 | Nc1cc(CN2CCC(C(=O)N3CCC(n4c(=O)n(-c5ccc(F)c(F)c5)c5cc(F)ccc54)CC3)CC2)ccn1 | – | > 30 | > 30 | 5.1 | 680
9 | Nc1cc(CN2CCC(C(=O)N3CCC(n4c(=O)n(-c5cc(F)cc(F)c5)c5cc(F)ccc54)CC3)CC2)ccn1 | – | > 30 | > 30 | 12.9 | 1850
10 | Nc1cc(CN2CCC(C(=O)N3CCC(n4c(=O)n(-c5ccccn5)c5cc(F)ccc54)CC3)CC2)ccn1 | – | > 30 | > 30 | 10.9 | 1200
11 | Nc1cc(CN2CCC(C(=O)N3CCC(n4c(=O)n(-c5ncccn5)c5cc(F)ccc54)CC3)CC2)ccn1 | – | > 30 | > 30 | – | –
12 | Nc1cc(CN2CCC(C(=O)N3CCC(n4c(=O)n(-c5cnccn5)c5cc(F)ccc54)CC3)CC2)ccn1 | 0.5 | > 30 | > 30 | 3.7 | 500

Further lines, results first:

Row | Ki (Histamine H3 receptor) [nM] | IC50 (Cytochrome P450 3A4) [µM] | IC50 (Cytochrome P450 2D6) [µM] | AUC [1] [µM·h] | concentration at 6 h [2] [nM] | SMILES
13 | 0.6 | > 30 | > 30 | – | – | Nc1cc(CN2CCC(C(=O)N3CCC(n4c(=O)[nH]c5ccccc54)CC3)CC2)ccn1
14 | – | > 30 | > 30 | – | – | Nc1cc(CN2CCC(C(=O)N3CCC(n4c(=O)n(CCCC(F)(F)F)c5ccccc54)CC3)CC2)ccn1
15 | – | > 30 | > 30 | 0.1 | – | COCCn1c(=O)n(C2CCN(C(=O)C3CCN(Cc4ccnc(N)c4)CC3)CC2)c2ccccc21
16 | – | 30 | > 30 | – | – | Nc1cc(CN2CCC(C(=O)N3CCC(n4c(=O)n(CCN5CCOCC5)c5ccccc54)CC3)CC2)ccn1
17 | 2.3 | > 30 | > 30 | – | – | Nc1cc(CN2CCC(C(=O)N3CCC(n4c(=O)n(CCN5CCOCC5)c5cc(F)ccc54)CC3)CC2)ccn1
18 | – | 30 | > 30 | 4.1 | 510 | Nc1cc(CN2CCC(C(=O)N3CCC(n4c(=O)n(CCCC(F)(F)F)c5cc(F)ccc54)CC3)CC2)ccn1
19 | – | 30 | > 30 | 3.5 | 260 | Nc1cc(CN2CCC(C(=O)N3CCC(n4c(=O)n(CC5CC5)c5cc(F)ccc54)CC3)CC2)ccn1
20 | – | 22 | > 30 | 1.8 | 200 | Nc1cc(CN2CCC(C(=O)N3CCC(n4c(=O)n(C5CCCC5)c5cc(F)ccc54)CC3)CC2)ccn1
